Results taken from US10525064B2, “Anticancer adjuvant containing panaxadiol ginsenocide compound” (priority 2015, dated 2020).
≈ marks a conversion by molar mass, not a printed value.

Columns and labels:
MCF-7 cells [1] = assay: Anticancer activity with PARP inhibitor or caspase-9 inhibitor pretreatment; assay type: cell-based, human; conditions: FIG. 3C; for anticancer activity with PARP activity inhibitor, ginsenoside and doxorubicin treated simultaneously: 3-AB pretreatment, ginsenoside 10 μg/mL, doxorubicin 5 μg/mL
Description: Specifically, a medium containing C-K or PPD (10 μg/mL) was added to MCF-7 cells pretreated with Z-LEHD-FMK (i.e., an inhibitor of caspase-9) or 3-AB (i.e., an inhibitor of PARP) and cultured for 12 hours. The medium was then replaced with a medium containing doxorubicin (0 μg/mL or 5 μg/mL) and cultured for 24 hours. The same western blot analysis was performed using the cultured cells (FIG. 3C).

[2] = tested on: mitochondria of MCF-7 cells; assay: Mitochondria immunostaining with anti-Tom-20 antibody; assay type: cell-based, human; conditions: ginsenoside 10 μg/mL, 24 hours, FIG. 5A
Description: That is, MCF-7 cells were charged with a medium containing C-K or PPD (10 μg/mL) and cultured for 24 hours. The cells, upon completion of culture, were fixed with 4% paraformaldehyde, perforated by adding 0.5% Triton X-100 solution thereto, and mitochondria of the cells were immunostained with anti-Tom-20 antibody. Upon completion of staining, the cells were washed with PBS and then photographed using a confocal microscope to measure the levels of fluorescence developed (FIG. 5A).

[3] = tested on: phosphorylated JNK, cleaved-PARP, cleaved-caspase-9 in MCF-7 cells; assay: Western blot of apoptosis-related proteins; assay type: cell-based, human; conditions: for level of cleaved-caspase-9 / levels of phosphorylated JNK and cleaved-PARP: ginsenoside 10 μg/mL with doxorubicin 5 μg/mL
Description: MCF-7 cells were charged with a medium containing C-K or PPD (10 μg/mL) and cultured for 12 hours, and the medium was replaced with a medium containing C-K or PPD (10 μg/mL) and doxorubicin (0 μg/mL or 5 μg/mL) and cultured for 24 hours. The cells, upon completion of culture, were disrupted and western blot analyses were performed treated with respect to anti-phosphorylated JNK antibody, anti-PARP antibody, anti-cleaved-PARP antibody, and anti-caspase-9 antibody or anti-cleaved-caspase-9 antibody (FIG. 3A).
Accordingly, MCF-7 cells were charged with a medium containing PPD (10 μg/mL) and cultured for 12 hours, and the medium was replaced with a medium containing PPD (10 μg/mL) and doxorubicin (5 μg/mL) and cultured for 0 hours, 0.5 hours, 1 hour, 2 hours, 4 hours, or 6 hours. The same western blot analysis was performed using the cultured cells (FIG. 3B). In particular, as a comparative group, cells cultured in a medium containing doxorubicin alone were used instead of the medium containing PPD and doxorubicin.

MCF-7 cells [4] = assay: WST-1 viability assay, ginsenoside pretreatment followed by doxorubicin or tamoxifen; assay type: cell-based; conditions: for effect on anticancer activity of doxorubicin: then doxorubicin 5 μg/mL 24 hours, FIG. 2A; for anticancer activity of doxorubicin with ginsenoside compared to doxorubicin alone: ginsenoside 10 μg/mL, doxorubicin 0-50 μg/mL
Description: Specifically, each of the PPD-type ginsenoside compounds (F2, Rh2, C-K, or PPD) at a concentration of 10 μg/mL was added to MCF-7 cells, cultured for 12 hours, and treated with 20 μM tamoxifen or doxorubicin (5 μg/mL) and cultured for 24 hours. Upon completion of the cultivation, the viability of MCF-7 cells was compared by WST-1 assay (FIG. 2A).
In this regard, to determine whether the C-K or PPD affects the treatment concentration of doxorubicin, the PPD-type ginsenoside compound (C-K or PPD) was added to the MCF-7 cells at a concentration of 10 μg/mL and cultured for 12 hours. Then, the MCF-7 cells were treated with doxorubicin at various concentrations (0 μg/mL, 0.1 μg/mL, 0.5 μg/mL, 1 μg/mL, 2 μg/mL, 5 μg/mL, 10 μg/mL, and 50 μg/mL) and cultured for 24 hours. Upon completion of the culture, the viability of the MCF-7 cells and the LC50 values calculated therefrom were compared by WST-1 assay (FIG. 2B).

[5] = tested on: cytochrome-C release in MCF-7 cells; assay: Cytochrome-C release from mitochondria, immunofluorescent staining; assay type: cell-based, human; conditions: for level of cytochrome-C release compared to doxorubicin treatment alone: then doxorubicin 5 μg/mL 4 hours; for cells in which cytochrome-C was released, of the entire cells: 6 hours after the treatment, FIG. 4B
Description: MCF-7 cells were charged with a medium containing C-K or PPD (10 μg/mL) and cultured for 24 hours, and the medium was replaced with a medium containing doxorubicin (5 μg/mL) and cultured for 0 hours or 4 hours. The cells, upon completion of culture, were fixed with 4% paraformaldehyde, perforated by adding 0.5% Triton X-100 solution thereto, and the cells were immunostained with anti-cytochrome-C antibody for 30 minutes. Upon completion of the staining, the cells were washed with PBS, reacted with fluorescently-labeled secondary antibody for 30 minutes, washed with PBS, and then photographed using a confocal microscope to measure the levels of fluorescence developed (FIG. 4A).
In this regard, the present inventors have attempted to confirm whether the level of cytochrome-C release can be changed by the treatment time of doxorubicin. That is, the immunostaining was performed in the same manner as described above, except that MCF-7 cells were charged with a medium containing C-K or PPD (10 μg/mL) and cultured for 24 hours, and the medium was replaced with a medium containing doxorubicin (5 μg/mL), and the cells which were cultured for 0 hours, 0.5 hours, 1 hour, 2 hours, 4 hours, or 6 hours were used. Then, the number of cells in which cytochrome-C was released from mitochondria to cytoplasm was measured (FIG. 4B). In particular, an experimental group not treated with ginsenoside was used as a control.

MCF-7 cells [6] = assay: WST-1 viability assay, PPD-type ginsenoside compounds alone; assay type: cell-based, human; conditions: 0-200 μg/mL, 24 hours, FIG. 1
Description: First, MCF-7 cells, a human breast cancer cell line, were inoculated into DMEM medium containing 10% FBS and 1% penicillin/streptomycin, cultured in conditions of 5% CO2 and 37° C. When the cultured MCF-7 cells were saturated the cells were sub-cultured at intervals of 3 days to 5 days.
Then, the cultured MCF-7 cells were treated with various concentrations (0 μg/mL, 5 μg/mL, 10 μg/mL, 20 μg/mL, 50 μg/mL, 100 μg/mL, or 200 μg/mL) of PPD-type ginsenoside compounds (F2, Rh2, C-K, or PPD) for 24 hours, and the viability of these cells was measured by performing WST-1 assay on the MCF-7 cells (FIG. 1). In particular, WST-1 assay was performed by inoculating each of the MCF-7 cells in a medium containing 10% EZ-Cytox and reacting at 37° C. for 1.5 hours. The level of water-soluble formazan dye produced by the viable cells was measured by absorbance at 450 nm and the results were analyzed to calculate the cell viability of the cells.

[7] = tested on: Drp1, Fis1, OPA-3, Mfn1, Mfn2, OPA1 in MCF-7 cells; assay: Western blot of mitochondrial fission and fusion proteins; assay type: cell-based, human; conditions: ginsenoside 10 μg/mL, 24 hours, FIG. 5B
Description: Accordingly, western blot analysis was performed with respect to each of the cultured cells and the expression levels of the proteins (Drp1, Fis1, and OPA-3) involved in mitochondrial fission and those of the proteins (Mfn1, Mfn2, and OPA1) involved in mitochondrial fusion were compared (FIG. 5B).

MCF-7 cells [8] = assay: WST-1 viability assay in siRNA-treated cells with doxorubicin or tamoxifen; assay type: cell-based, human; conditions: 5 μM doxorubicin or 20 μM tamoxifen, 24 hours, FIG. 6B; for change of anticancer activity where mitochondrial fission was induced by Mfn1 or Mfn2 siRNA: Mfn2 versus Mfn1 inhibition; for anticancer activity (viability of MCF-7 cells): siRNA-introduced cells
Description: Meanwhile, each of the synthesized siRNAs was introduced into MCF-7 cells and cultured for 12 hours. The cells were cultured further for 48 hours in a normal medium containing no siRNA, treated with 5 μM doxorubicin or 20 μM tamoxifen, and cultured for 24 hours. Upon completion of culture, the viability of the MCF-7 cells was compared by WST-1 assay (FIG. 6B). In particular, an experimental group not treated with doxorubicin or tamoxifen was used as a control.

[9] = ginsenoside 10 μg/mL 24 hours, FIG. 4A
[10] = ginsenoside 10 μg/mL 24 hours, then doxorubicin 5 μg/mL

CC(C)=CCC[C@](C)(O[C@@H]1OC(CO)[C@@H](O)C(O)C1O)C1CC[C@]2(C)C1[C@H](O)CC1[C@@]3(C)CCC(O)C(C)(C)C3CC[C@]12C (stereo partly shown) [C-K, compound-K]
anticancer activity with PARP activity inhibitor, ginsenoside and doxorubicin treated simultaneously (MCF-7 cells [1]): slightly recovered
mitochondrial damage [2]: damage was observed
level of cleaved-caspase-9 ([3]; 24 hours, FIG. 3A): significantly increased
levels of phosphorylated JNK and cleaved-PARP ([3]; 24 hours, FIG. 3A): not affected
effect on anticancer activity of doxorubicin (MCF-7 cells [4]; ginsenoside 10 μg/mL 12 hours): could enhance the anticancer activity of doxorubicin
anticancer activity of doxorubicin with ginsenoside compared to doxorubicin alone (MCF-7 cells [4]; FIG. 2B): increased
level of cytochrome-C release compared to doxorubicin treatment alone [5, 9]: increased the level of cytochrome-C release
cells in which cytochrome-C was released, of the entire cells [5, 10]: 20%
anticancer activity (viability of MCF-7 cells) (MCF-7 cells [6]): relatively excellent anticancer activity
expression level of Mfn2 (mitochondrial fusion protein) [7]: decreased
expression level of OPA-3 (mitochondrial fission protein) [7]: increase

COc1cccc2c1C(=O)c1c(O)c3c(c(O)c1C2=O)C[C@@](O)(C(=O)CO)C[C@@H]3O[C@H]1C[C@H](N)[C@H](O)[C@H](C)O1 [doxorubicin, reference compound]
anticancer effect of doxorubicin with PARP or caspase-9 activity inhibitor (MCF-7 cells [1]; Z-LEHD-FMK or 3-AB pretreatment, doxorubicin 5 μg/mL 24 hours): inhibited
change of anticancer activity where mitochondrial fission was induced by Mfn1 or Mfn2 siRNA (MCF-7 cells [8]): further increased
anticancer activity (viability of MCF-7 cells) (MCF-7 cells [8]): significantly high level of anticancer activity
levels of phosphorylated JNK, cleaved-PARP, and cleaved-caspase-9 ([3]; doxorubicin 5 μg/mL, 24 hours, FIG. 3A): increased
CC50 (MCF-7 cells [4]; Homo sapiens, MCF7, 24 h, read-out: LC50 of doxorubicin): ~10 µg/mL (≈ 18.4 µM)
cells in which cytochrome-C was released, of the entire cells ([5]; doxorubicin 5 μg/mL alone (control)): 7%
level of cytochrome-C release compared to no doxorubicin treatment ([5]; doxorubicin 5 μg/mL, 4 hours, FIG. 4A): increased the level of cytochrome-C release

CC(C)=CCC[C@](C)(O)[C@H]1CC[C@]2(C)[C@@H]1[C@H](O)C[C@@H]1[C@@]3(C)CC[C@H](O)C(C)(C)[C@@H]3CC[C@]12C [PPD, protopanaxadiol]
anticancer activity with PARP activity inhibitor, ginsenoside and doxorubicin treated simultaneously (MCF-7 cells [1]): slightly recovered
mitochondrial damage [2]: damage was observed
formation of cleaved-PARP and cleaved-caspase-9 according to treatment time ([3]; PPD 10 μg/mL with doxorubicin 5 μg/mL, 0-6 hours, versus doxorubicin alone, FIG. 3B): formed more rapidly
level of cleaved-caspase-9 ([3]; 24 hours, FIG. 3A): significantly increased
levels of phosphorylated JNK and cleaved-PARP ([3]; 24 hours, FIG. 3A): not affected
effect on anticancer activity of doxorubicin (MCF-7 cells [4]; ginsenoside 10 μg/mL 12 hours): could enhance the anticancer activity of doxorubicin
anticancer activity of doxorubicin with ginsenoside compared to doxorubicin alone (MCF-7 cells [4]; FIG. 2B): increased
level of cytochrome-C release compared to doxorubicin treatment alone [5, 9]: increased the level of cytochrome-C release
cells in which cytochrome-C was released, of the entire cells [5, 10]: 43%
anticancer activity (viability of MCF-7 cells) (MCF-7 cells [6]): relatively excellent anticancer activity
expression level of Mfn2 (mitochondrial fusion protein) [7]: decreased
expression level of OPA-3 (mitochondrial fission protein) [7]: increase

CC/C(=C(\c1ccccc1)c1ccc(OCCN(C)C)cc1)c1ccccc1 [tamoxifen]
change of anticancer activity where mitochondrial fission was induced by Mfn1 or Mfn2 siRNA (MCF-7 cells [8]): no difference in anticancer activity
anticancer activity (viability of MCF-7 cells) (MCF-7 cells [8]): showed anticancer activity

CC(C)=CCC[C@](C)(O[C@@H]1O[C@H](CO)[C@@H](O)[C@H](O)[C@H]1O)[C@H]1CC[C@]2(C)[C@@H]1[C@H](O)C[C@@H]1[C@@]3(C)CC[C@H](O[C@@H]4O[C@H](CO)[C@@H](O)[C@H](O)[C@H]4O)C(C)(C)[C@@H]3CC[C@]12C [F2, reference compound]
LC50 of doxorubicin treated simultaneously with ginsenoside (MCF-7 cells [4]; ginsenoside 10 μg/mL 12 hours, then doxorubicin 0-50 μg/mL 24 hours, FIG. 2B): about 10 μg/mL
effect on anticancer activity of doxorubicin (MCF-7 cells [4]; ginsenoside 10 μg/mL 12 hours): no particular effect on doxorubicin
